# Source: US7285567B2, “Halogenated benzamide derivatives” (Romark Laboratories, L.C., priority 2005, dated 2007)
# Like-named read-outs stand apart in the source and are kept apart here.
# Experiments:
# [1] = test system: Coronavirus: canine coronavirus strain S-378; experiment: microbe, parasite or virus in culture; assay type: cell-based; conditions: canine coronavirus strain S-378, A72 cell culture
# [2] = test system: Rotavirus: Simian Rotavirus SA-11; experiment: microbe, parasite or virus in culture; assay type: cell-based; conditions: Simian rotavirus SA-11, MA104 cell culture
# [3] = test system: clostridia; experiment: organism not typed; assay type: cell-based; conditions: Clostridia (18 isolates), agar dilution, 48 h
# [4] = test system: Human Rhinovirus Type 39 (HRV-39); experiment: Multiple cycle CPE inhibition assay on OH-I Hela cell monolayers; assay type: cell-based; conditions: Rhinovirus A, HRV39, HRV-39, OH-Hela, 2% McCoys + Hepes Buffer
# Protocol: (§1) EC50 (μg/mL) values for 2-(acetolyloxy)-3-methyl-N-(5-bromo-2-thiazolyl)benzamide (RM4803), 2-(acetolyloxy)-3-methyl-N-(5-chloro-2-thiazolyl)benzamide (RM4804), and 2-(acetolyloxy)-3-methoxy-N-(5-bromo-2-thiazolyl)benzamide (RM4806), on Human Rhinovirus Type 39 (HRV-39), and H3N2 influenza virus, type A, using a multiple cycle CPE inhibition assay on OH-I Hela and Madin Darby Canine Kidney (MDCK) cell monolayers, respectively, were measured by microscopic and spectrophotometric methods. Pirodavir and Oseltamivir were included as positive controls.
# [5] = test system: Giardia intestinalis; experiment: Antiparasite test by conventional means; assay type: cell-based; conditions: at concentrations of at least 50 μg/mL
# Protocol: (§2) The above identified compounds according to Formula (IV) were tested by conventional means against Trichomis vaginalis, Giardia Intestinalis, and Trypanosoma brucei.
# [6] = test system: Trypanosoma brucei; experiment: Antiparasite test by conventional means; assay type: cell-based; conditions: at concentrations of at least 50 μg/mL
# Protocol: as §2
# [7] = test system: Trichomonas vaginalis; experiment: Antiparasite test by conventional means; assay type: cell-based; conditions: at concentrations of at least 50 μg/mL
# Protocol: as §2
# [8] = Cytotoxicity in 2.2.15 cells (neutral red dye uptake); assay type: cell-based; conditions: human, 2-fold depression of neutral red dye uptake
# Protocol: (§3) Anti-Hepatitis B Virus (HBV) analyses and an assessment of cytotoxicity were performed in a 9-day assay in the chronically-producing HBV human hepatoblastoma cell line, 2.2.15, as previously described (Korba, B. E. & Gerin, J. L. Use of a standardized cell culture assay to assess activities of nucleosides analogues against hepatitis B virus replication. Antivir. Res. 19, 55-70 (1992)).
# (§4) Values presented (±standard deviations [S.D.]) were calculated by linear regression analysis using data combined from all treated cultures. S.D. were calculated using the standard error of regression generated from linear regression analyses (QuattroPro™). EC50, EC90=drug concentration at which a 2-fold, or a 10-fold depression of HBV DNA (relative to the average levels in untreated cultures), respectively, was observed, CC50=drug concentration at which a 2-fold depression of neutral red dye uptake (relative to the average levels in untreated cultures) was observed, The EC90 values were used for the calculation of the Selectivity Indexes [S.I.] since at least a 3-fold depression of HBV levels is typically required to achieve statistical significance in this assay system. HBV R.I.=intracellular HBV DNA replication intermediate.
# [9] = test system: H3N2 influenza virus, type A; experiment: Multiple cycle CPE inhibition assay on MDCK cell monolayers; assay type: cell-based; conditions: 0% EMEM + Hepes + Trypsin
# Protocol: as §1
# [10] = Cytotoxicity in AVA5 cells (neutral red dye uptake); assay type: cell-based, human; conditions: human, 2-fold depression of neutral red dye uptake
# Protocol: (§5) Anti-Hepatitis C Virus (HCV) analyses and an assessment of cytotoxicity were performed in a 3-day assay in the HCV replicon-containing human hepatoblastoma cell line, AVA5 (Okuse, C., Rinaudo, J. A., Farrar, K., Wells, F. & Korba, B. E. Enhancement of antiviral activity against hepatitis C virus in vitro by interferon combination therapy. Antivir. Res. 65, 23-34 (2005)) as previously described (Blight, K. J., Kolykhalov, A. A. & Rice, C. M. Efficient initiation of HCV RNA replication in cell culture. Science 290, 1972-1974 (2000)).
# (§6) Values presented (±standard deviations [S.D.]) were calculated by linear regression analysis using data combined from all treated cultures. S.D. were calculated using the standard error of regression generated from the linear regression analyses (QuattroPro™). EC50, EC90=drug concentration at which a 2-fold, or a 10-fold depression of HCV RNA (relative to the average levels in untreated cultures), respectively, was observed. CC50=drug concentration at which a 2-fold depression of neutral red dye uptake was observed relative to the average levels in untreated cultures. Selectivity index=CC50/EC50.
# [11] = test system: Hepatitis B Virus (HBV); experiment: HBV replication in 2.2.15 cell culture, 9-day assay; assay type: cell-based; conditions: for EC50 / EC90: Hepatitis B virus, 2.2.15 cells
# Protocol: as §3, §4
# [12] = test system: anaerobic Gram positive cocci; experiment: CLSI agar dilution MIC, anaerobic clinical isolates; assay type: cell-based; conditions: Gram + cocci (16 isolates), 48 h
# [13] = test system: Influenza A: PR8 strain; experiment: microbe, parasite or virus in culture; assay type: cell-based, Influenza A virus
# [14] = test system: Herpes Simplex type 1: strain F1; experiment: microbe, parasite or virus in culture; assay type: cell-based, Herpes Simplex virus type 1; conditions: Herpes Simplex type 1 strain F1, HEp-2 cell culture
# [15] = test system: anaerobic bacteria (all 142 isolates); experiment: CLSI agar dilution MIC, all anaerobic clinical isolates; assay type: cell-based
# [16] = test system: hepatitis C virus (HCV) replicon; experiment: HCV replication in AVA5 replicon cell culture, 3-day assay; assay type: cell-based; conditions: AVA5 cells
# Protocol: as §5, §6
# [17] = test system: anaerobic Gram-positive non-sporeforming rods; experiment: CLSI agar dilution MIC, anaerobic clinical isolates; assay type: cell-based; conditions: Gram + rods (14 isolates), 48 h
# [18] = test system: Rhabdovirus: Vesicular stomatitis virus; experiment: microbe, parasite or virus in culture; assay type: cell-based
# [19] = microscopic reading, read-out: EC50, Microscopic
# [20] = spectrophotometric reading, read-out: EC50, Spectrophotometer
# [21] = All (142 isolates), agar dilution, 48 h
compound,measurement,setting,value
"CC(=O)Oc1c(C)cccc1C(=O)Nc1ncc(Br)s1 [RM-4803, 2-(acetolyloxy)-3-methyl-N-(5-bromo-2-thiazolyl)benzamide]",EC50,"[1]; Alphacoronavirus 1, A-72",4.2 µM
same,SI (selectivity index) = CC50/EC50,[1]; CC50 by MTT,13
same,EC50,[2]; Rotavirus A,0.06 µM
same,SI (selectivity index) = CC50/EC50,[2]; CC50 by MTT,> 2500
same,MIC50,[3]; read-out: MIC50,> 32 µg/mL
same,MIC90,[3]; read-out: MIC90,> 32 µg/mL
same,EC50,[4]; [19],0.06 µg/mL
same,EC50,[4]; [20],0.03 µg/mL
same,antiparasite activity,[5],failed to exhibit antiparasite activitity
same,antiparasite activity,[6],failed to exhibit antiparasite activitity
same,antiparasite activity,[7],failed to exhibit antiparasite activitity
same,CC50 at 9 day,[8],> 1000 µM
same,EC50,[9]; [19],0.45 µg/mL
same,EC50,[9]; [20],0.18 µg/mL
same,CC50 at 3 day,[10],282 ± 21 µM
same,EC50,"[11]; 2-fold depression of HBV DNA, read-out: Extracellular Virion DNA EC50",6.3 ± 0.7 µM
same,EC90,"[11]; 10-fold depression of HBV DNA, read-out: Extracellular Virion DNA EC90",15 ± 1.1 µM
same,EC50,"[11]; intracellular HBV DNA replication intermediate, 2-fold depression, read-out: Intracellular HBV R.I. EC50",12 ± 1.5 µM
same,EC90,"[11]; intracellular HBV DNA replication intermediate, 10-fold depression, read-out: Intracellular HBV R.I. EC90",50 ± 5.5 µM
same,Selectivity Index R.I.,"[11]; calculated with EC90 values (CC50/EC90), HBV R.I.",>20
same,Selectivity Index Virion,"[11]; calculated with EC90 values (CC50/EC90), virion DNA",>67
same,MIC50,[12],> 32 µg/mL
same,MIC90,[12],> 32 µg/mL
same,SI (selectivity index) = CC50/EC50,"[13]; Influenza A PR8 strain, MDCK cell culture, CC50 by MTT",> 50
same,EC50,"[13]; Influenza A virus, PR8, MDCK",2.8 µM
same,SI (selectivity index) = CC50/EC50,[14]; CC50 by MTT,3
same,EC50,[14]; Human alphaherpesvirus 1,5.6 µM
same,MIC50,[15]; [21],> 32 µg/mL
same,MIC90,[15]; [21],> 32 µg/mL
same,Activity against anaerobic bacteria groups (summary in words),[15]; summary of MIC results,without significant activity
same,Selectivity Index,[16]; CC50/EC50,7.6
same,EC50,"[16]; Hepatitis C virus, 2-fold depression of HCV RNA, read-out: EC50",37 ± 2.7 µM
same,EC90,"[16]; Hepatitis C virus, 10-fold depression of HCV RNA, read-out: EC90",98 ± 9.3 µM
same,MIC50,[17],> 32 µg/mL
same,MIC90,[17],> 32 µg/mL
same,EC50,[18]; MA104,2.8 µM
same,SI (selectivity index) = CC50/EC50,"[18]; MA104 cell culture, CC50 by MTT",> 50
